Measured values: ChEMBL document CHEMBL5390279, “Hydrolytic Activity of Mitochondrial F1FO-ATP Synthase as a Target for Myocardial Ischemia-Reperfusion Injury: Discovery and In Vitro and In Vivo Evaluation of Novel Inhibitors” (J Med Chem, 2023)
Calls of active or inactive are those of the source. No cut-off for these calls is given here.

Experiments:
[1] = Inhibition of mouse heart mitochondrial F0F1-ATP synthase hydrolytic activity incubated for 10 mins by microplate reader analysis; format: mitochondria, Mitochondria
H9c2 [2] = experiment: Induction of mitochondrial membrane potential loss in rat H9c2 cells assessed as increase in fluorescence intensity at 50 uM in presence of rotenone by TMRM dye based assay; format: cell-based
H9c2 [3] = experiment: Induction of mitochondrial membrane potential loss in rat H9c2 cells assessed as increase in fluorescence intensity at 100 uM by TMRM dye based assay; format: cell-based
H9c2 [4] = experiment: Cytotoxicity against rat H9c2 cells assessed as reduction in cell survival at 100 uM incubated for 24 hrs by MTT assay; format: toxicity, cell-based; conditions: h9c2, 24 h
Mus musculus [5] = experiment: Cardioprotective activity against cardiac ischemia/reperfusion induced C57BL/6J mouse model assessed as reduction in cardiac infarct size at 5 mg/kg, iv prior to 5 mins of myocardial ischemia and 2 hrs of reperfusion (Rvb= 45.4 +/- 1.8 %); format: functional; set-up: scale not given: the % may be the effect or the level left; conditions: time 125 min, 2.083 h
Mus musculus [6] = organism: Mus musculus; experiment: Inhibition of mouse heart mitochondrial F0F1-ATP synthase hydrolytic activity at 200 uM incubated for 10 mins by microplate reader analysis; conditions: Mitochondria
H9c2 [7] = experiment: Induction of mitochondrial membrane potential loss in rat H9c2 cells assessed as increase in fluorescence intensity at 50 to 100 uM in presence of rotenone by TMRM dye based assay; format: cell-based; conditions: dose 50-100 µM
H9c2 [8] = experiment: Induction of mitochondrial membrane potential loss in rat H9c2 cells assessed as increase in fluorescence intensity at 0.1 to 100 uM by TMRM dye based assay; format: cell-based; conditions: dose 0.1-100 µM
H9c2 [9] = experiment: Cytotoxicity against rat H9c2 cells assessed as reduction in cell survival at 0.1 to 100 uM incubated for 24 hrs by MTT assay; format: toxicity, cell-based; conditions: h9c2, 24 h, dose 0.1-100 µM
H9c2 [10] = experiment: Cytotoxicity against rat H9c2 cells assessed as reduction in cell survival at 10 to 100 uM incubated for 24 hrs by MTT assay; format: toxicity, cell-based; conditions: h9c2, 24 h, dose 10-100 µM
Mus musculus [11] = experiment: Cardioprotective activity against cardiac ischemia/reperfusion induced C57BL/6J mouse model assessed as reduction in cardiac infarct size at 3.5 mg/kg, iv prior to 5 mins of myocardial ischemia and 2 hrs of reperfusion (Rvb= 45.4 +/- 1.8 %); format: functional; set-up: scale not given: the % may be the effect or the level left; conditions: time 125 min, 2.083 h
Mus musculus [12] = experiment: Cardioprotective activity against cardiac ischemia/reperfusion induced C57BL/6J mouse model assessed as reduction in cardiac infarct size at 5 mg/kg, iv measured after 5 mins of myocardial ischemia and 2 hrs of reperfusion (Rvb= 45 +/- 2.2 %); format: functional; set-up: scale not given: the % may be the effect or the level left; conditions: time 125 min, 2.083 h
Mus musculus [13] = experiment: Cardioprotective activity against cardiac ischemia/reperfusion induced C57BL/6J mouse model assessed as reduction in cardiac infarct size at 5 mg/kg, iv measured after 25 mins of myocardial ischemia and 2 hrs of reperfusion (Rvb= 47.8 +/- 3.4 %); format: functional; set-up: scale not given: the % may be the effect or the level left; conditions: time 145 min, 2.417 h
Mus musculus [14] = experiment: Cardioprotective activity against cardiac ischemia/reperfusion induced C57BL/6J mouse model assessed as increase in ATP level at 3.5 mg/kg, iv preincubated under ischemic condition for 30 mins followed by compound addition for 5 mins and subsequent incubation under reperfusion for 10 mins; format: functional, organism-based; conditions: time 15.0 min
Mus musculus [15] = experiment: Cardioprotective activity against cardiac ischemia/reperfusion induced C57BL/6J mouse model assessed as increase in Akt phosphorylation at 3.5 mg/kg, iv preincubated under ischemic condition for 30 mins followed by compound addition for 5 mins and subsequent incubation under reperfusion for 10 mins by Western blot analysis; format: functional, organism-based; conditions: time 15.0 min
Mus musculus [16] = experiment: Cardioprotective activity against cardiac ischemia/reperfusion induced C57BL/6J mouse model assessed as increase in ERK1/2 phosphorylation at 3.5 mg/kg, iv preincubated under ischemic condition for 30 mins followed by compound addition for 5 mins and subsequent incubation under reperfusion for 10 mins by Western blot analysis; format: functional, organism-based; conditions: time 15.0 min
Mus musculus [17] = experiment: Cardioprotective activity against cardiac ischemia/reperfusion induced C57BL/6J mouse model assessed as increase in GSK3beta phosphorylation at S9 fraction at 3.5 mg/kg, iv preincubated under ischemic condition for 30 mins followed by compound addition for 5 mins and subsequent incubation under reperfusion for 10 mins by Western blot analysis; format: functional, organism-based; conditions: time 15.0 min
Mus musculus [18] = experiment: Cardioprotective activity against cardiac ischemia/reperfusion induced C57BL/6J mouse model assessed as effect on Akt level at 3.5 mg/kg, iv preincubated under ischemic condition for 30 mins followed by compound addition for 5 mins and subsequent incubation under reperfusion for 10 mins by Western blot analysis; format: functional, organism-based; conditions: time 15.0 min
Mus musculus [19] = experiment: Cardioprotective activity against cardiac ischemia/reperfusion induced C57BL/6J mouse model assessed as effect on ERK1/2 level at 3.5 mg/kg, iv preincubated under ischemic condition for 30 mins followed by compound addition for 5 mins and subsequent incubation under reperfusion for 10 mins by Western blot analysis; format: functional, organism-based; conditions: time 15.0 min
Mus musculus [20] = experiment: Cardioprotective activity against cardiac ischemia/reperfusion induced C57BL/6J mouse model assessed as effect on GSK3beta level at 3.5 mg/kg, iv preincubated under ischemic condition for 30 mins followed by compound addition for 5 mins and subsequent incubation under reperfusion for 10 mins by Western blot analysis; format: functional, organism-based; conditions: time 15.0 min
Mus musculus [21] = experiment: Cardioprotective activity against cardiac ischemia/reperfusion induced C57BL/6J mouse model assessed as increase in Bcl-XL expression at 3.5 mg/kg, iv preincubated under ischemic condition for 30 mins followed by compound addition for 5 mins and subsequent incubation under reperfusion for 10 mins by Western blot analysis; format: functional, organism-based; conditions: time 15.0 min
Mus musculus [22] = experiment: Cardioprotective activity against cardiac ischemia/reperfusion induced C57BL/6J mouse model assessed as increase in Bax expression at 3.5 mg/kg, iv preincubated under ischemic condition for 30 mins followed by compound addition for 5 mins and subsequent incubation under reperfusion for 10 mins by Western blot analysis; format: functional, organism-based; conditions: time 15.0 min
Mus musculus [23] = experiment: Cardioprotective activity against cardiac ischemia/reperfusion induced C57BL/6J mouse model assessed as increase in cleaved caspase-3 expression at 3.5 mg/kg, iv preincubated under ischemic condition for 30 mins followed by compound addition for 5 mins and subsequent incubation under reperfusion for 10 mins by Western blot analysis; format: functional, organism-based; conditions: time 15.0 min
H9c2 [24] = experiment: Induction of mitochondrial membrane potential loss in rat H9c2 cells assessed as increase in fluorescence intensity at 10 to 100 uM in presence of rotenone by TMRM dye based assay; format: cell-based; conditions: dose 10-100 µM
H9c2 [25] = experiment: Cytotoxicity against rat H9c2 cells assessed as reduction in cell viability at 50 to 100 uM incubated for 24 hrs by MTT assay; format: toxicity, cell-based; conditions: h9c2, 24 h, dose 50-100 µM
H9c2 [26] = experiment: Cytotoxicity against rat H9c2 cells assessed as reduction in cell viability at 10 to 100 uM incubated for 24 hrs by MTT assay; format: toxicity, cell-based; conditions: h9c2, 24 h, dose 10-100 µM
H9c2 [27] = experiment: Induction of mitochondrial membrane potential loss in rat H9c2 cells assessed as increase in fluorescence intensity at 100 uM in presence of rotenone by TMRM dye based assay; format: cell-based
H9c2 [28] = experiment: Induction of mitochondrial membrane potential loss in rat H9c2 cells assessed as increase in fluorescence intensity at 10 uM in presence of rotenone by TMRM dye based assay; format: cell-based
H9c2 [29] = experiment: Cytotoxicity against rat H9c2 cells assessed as reduction in cell viability at 100 uM incubated for 24 hrs by MTT assay; format: toxicity, cell-based; conditions: h9c2, 24 h
H9c2 [30] = experiment: Induction of mitochondrial membrane potential loss in rat H9c2 cells assessed as increase in fluorescence intensity at 50 uM by TMRM dye based assay; format: cell-based
H9c2 [31] = experiment: Induction of mitochondrial membrane potential loss in rat H9c2 cells assessed as increase in fluorescence intensity at 10 uM by TMRM dye based assay; format: cell-based
H9c2 [32] = experiment: Cytotoxicity against rat H9c2 cells assessed as reduction in cell survival at 50 uM incubated for 24 hrs by MTT assay; format: toxicity, cell-based; conditions: h9c2, 24 h
Mus musculus [33] = organism: Mus musculus; experiment: Effect on mPTP opening in C57BL6 mouse heart mitochondria assessed as number of calcium pulses by measuring green-5N fluorescence intensity at 10 to 1000 uM by calcium retention capacity assay; conditions: dose 10-1000 µM
Mus musculus [34] = organism: Mus musculus; experiment: Effect on mPTP opening in C57BL6 mouse heart mitochondria assessed as number of calcium pulses by measuring green-5N fluorescence intensity at 10 to 1000 uM in presence of cyclosporin A by calcium retention capacity assay; conditions: dose 10-1000 µM
Mus musculus [35] = organism: Mus musculus; experiment: Inhibition of mouse heart mitochondrial F0F1-ATP synthase hydrolytic activity at 200 uM incubated for 10 mins by microplate reader analysis relative to control; conditions: Mitochondria
H9c2 [36] = experiment: Cytotoxicity against rat H9c2 cells assessed as reduction in cell viability at 50 uM incubated for 24 hrs by MTT assay; format: toxicity, cell-based; conditions: h9c2, 24 h
H9c2 [37] = experiment: Cytotoxicity against rat H9c2 cells assessed as reduction in cell survival at 10 to 50 uM incubated for 24 hrs by MTT assay; format: toxicity, cell-based; conditions: h9c2, 24 h, dose 10-50 µM

Structure (SMILES)	IC50 [1] [µM]	inhibition (Mus musculus [6])	Activity (Mus musculus [33])	Activity (Mus musculus [34])	inhibition (Mus musculus [35]) [%]	Activity (H9c2 [2])	Activity (H9c2 [4])	Activity (Mus musculus [11]) [%]	Activity (H9c2 [27])	Activity (H9c2 [28])	Activity (H9c2 [29])	Activity (H9c2 [31])	also measured
O=C(Oc1cc(S(=O)(=O)c2ccccc2)ccc1[N+](=O)[O-])c1ccc(Cl)cc1	347					inactive	Non-Toxic						Activity (H9c2 [3]): inactive; Activity (Mus musculus [5]): 39.6%
COc1ccc(Cn2nc(-c3ccccc3)c3cc(Nc4ccc(N5CCN(C)CC5)cc4)nc(N4CCOCC4)c32)cc1	98.5	Active						25.6					Activity (H9c2 [7]): Active; Activity (H9c2 [8]): inactive; Activity (H9c2 [9]): Non-Toxic; Activity (H9c2 [10]): Non-Toxic; Activity (Mus musculus [12]): 23.1%; Activity (Mus musculus [13]): 40.4%; Activity (Mus musculus [14]): Active; Activity (Mus musculus [15]): Active; Activity (Mus musculus [16]): Active; Activity (Mus musculus [17]): Active; Activity (Mus musculus [18]): Active; Activity (Mus musculus [19]): Active; Activity (Mus musculus [20]): Active; Activity (Mus musculus [21]): Active; Activity (Mus musculus [22]): Active; Activity (Mus musculus [23]): Active
COc1ccc(Cn2nc(-c3ccccc3)c3cc(Cl)nc(N4CCNCC4)c32)cc1	151		inactive	inactive	50	Active	Toxic		Active	inactive	Toxic	inactive	Activity (H9c2 [36]): Non-Toxic; Activity (H9c2 [37]): Non-Toxic
Oc1ccc(/C=C/c2c3c(cc4c2[C@H](c2cc(O)cc(O)c2)[C@@H](c2ccc(O)cc2)O4)O[C@H](c2ccc(O)cc2)[C@H]3c2cc(O)cc(O)c2)cc1	162				50								

Further lines, with some results ahead:

IC50 [1] [µM]	inhibition (Mus musculus [6])	Activity (Mus musculus [33])	Activity (Mus musculus [34])	inhibition (Mus musculus [35]) [%]	Structure (SMILES)	Activity (H9c2 [2])	Activity (H9c2 [4])	Activity (Mus musculus [11]) [%]	Activity (H9c2 [27])	Activity (H9c2 [28])	Activity (H9c2 [29])	Activity (H9c2 [31])	also measured
164	Active				COc1ccc(Cn2nc(-c3cccc(F)c3)c3cc(Nc4ccc(N5CCN(C)CC5)cc4)nc(N4CCN(C)CC4)c32)cc1								Activity (H9c2 [24]): Active; Activity (H9c2 [25]): Toxic; Activity (H9c2 [26]): Non-Toxic
85.5		inactive	inactive		COc1ccc(Cn2nc(-c3ccccc3)c3cc(Nc4ccc(N5CCN(C)CC5)cc4)nc(N4CCN(C)CC4)c32)cc1	Active	Toxic	34.8	Active	inactive	Toxic	inactive	Activity (H9c2 [30]): inactive; Activity (H9c2 [32]): Non-Toxic
